#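 Dose response: 5 concentrations. Exposure: 48 h. Format: 96-well plates. Endpoint: linear interpolation; highest concentration if not reached. GI50 is the concentration that inhibits growth by half.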 Activity calls are given as the source filed them. Cut-off read from the data, not from the text of the source: active = GI50 up to about 1.1 µM and inactive = higher.
# Experiments:
# Assay in all cases: NCI anticancer screen, dose series, 48 h
# 786-0 = tested on: 786-0
# A498 = tested on: A498
# A549 = tested on: A549
# ACHN = tested on: ACHN
# BT-549 = tested on: BT-549
# CAKI-1 = tested on: CAKI-1
# CCRF-CEM = tested on: CCRF-CEM
# COLO 205 = tested on: COLO 205
# DU-145 = tested on: DU-145
# EKVX = tested on: EKVX
# HCT-116 = tested on: HCT-116
# HCT-15 = tested on: HCT-15
# HL-60 = tested on: HL-60
# HOP-92 = tested on: HOP-92
# HT-29 = tested on: HT-29
# IGROV-1 = tested on: IGROV-1
# K562 = tested on: K562
# KM12 = tested on: KM12
# LOX IMVI = tested on: LOX IMVI
# M14 = tested on: M14
# MCF7 = tested on: MCF7
# MDA-MB-435 = tested on: MDA-MB-435
# MDA-N = tested on: MDA-N
# MOLT-4 = tested on: MOLT-4
# Malme-3M = tested on: Malme-3M
# NCI-H226 = tested on: NCI-H226
# NCI-H23 = tested on: NCI-H23
# NCI-H522 = tested on: NCI-H522
# NCI/ADR-RES = tested on: NCI/ADR-RES
# OVCAR-3 = tested on: OVCAR-3
# OVCAR-4 = tested on: OVCAR-4
# OVCAR-5 = tested on: OVCAR-5
# OVCAR-8 = tested on: OVCAR-8
# PC-3 = tested on: PC-3
# RPMI-8226 = tested on: RPMI-8226
# RXF 393 = tested on: RXF 393
# SF-268 = tested on: SF-268
# SF-295 = tested on: SF-295
# SF-539 = tested on: SF-539
# SK-MEL-28 = tested on: SK-MEL-28
# SK-MEL-2 = tested on: SK-MEL-2
# SK-MEL-5 = tested on: SK-MEL-5
# SK-OV-3 = tested on: SK-OV-3
# SN12C = tested on: SN12C
# SNB-19 = tested on: SNB-19
# SNB-75 = tested on: SNB-75
# SR = tested on: SR
# SW-620 = tested on: SW-620
# T47D = tested on: T47D
# UACC-62 = tested on: UACC-62
# UO-31 = tested on: UO-31
smiles,measurement,setting,value
COc1cc(C2C(Cl)C(=O)N2NC(=O)c2ccc(NC(C)=O)cc2OC)ccc1O (stereo unspecified),GI50,786-0,15.1 µM (inactive)
same,GI50,A498,19.4 µM (inactive)
same,GI50,A549,32.1 µM (inactive)
same,GI50,ACHN,23.3 µM (inactive)
same,GI50,BT-549,17.3 µM (inactive)
same,GI50,CAKI-1,31.1 µM (inactive)
same,GI50,CCRF-CEM,2.64 µM (inactive)
same,GI50,COLO 205,14.9 µM (inactive)
same,GI50,DU-145,21.3 µM (inactive)
same,GI50,EKVX,13.6 µM (inactive)
same,GI50,HCT-116,16.9 µM (inactive)
same,GI50,HCT-15,19.5 µM
same,GI50,HL-60,20.3 µM (inactive)
same,GI50,HOP-92,16 µM (inactive)
same,GI50,HT-29,15.1 µM (inactive)
same,GI50,IGROV-1,17.5 µM (inactive)
same,GI50,K562,18.1 µM (inactive)
same,GI50,KM12,20.4 µM (inactive)
same,GI50,LOX IMVI,7.28 µM (inactive)
same,GI50,M14,16.3 µM (inactive)
same,GI50,MCF7,19.3 µM (inactive)
same,GI50,MDA-MB-435,28 µM (inactive)
same,GI50,MDA-N,20 µM (inactive)
same,GI50,MOLT-4,3.96 µM (inactive)
same,GI50,Malme-3M,24.4 µM (inactive)
same,GI50,NCI-H226,10.6 µM (inactive)
same,GI50,NCI-H23,17.7 µM (inactive)
same,GI50,NCI-H522,8.45 µM (inactive)
same,GI50,NCI/ADR-RES,37.5 µM (inactive)
same,GI50,OVCAR-3,21.4 µM (inactive)
same,GI50,OVCAR-4,39.1 µM (inactive)
same,GI50,OVCAR-5,13.2 µM (inactive)
same,GI50,OVCAR-8,22.2 µM (inactive)
same,GI50,PC-3,19.4 µM (inactive)
same,GI50,RPMI-8226,1.94 µM (inactive)
same,GI50,RXF 393,20.6 µM (inactive)
same,GI50,SF-268,21.8 µM (inactive)
same,GI50,SF-295,< 0.01 µM (active)
same,GI50,SF-539,19.1 µM (inactive)
same,GI50,SK-MEL-28,28.7 µM (inactive)
same,GI50,SK-MEL-2,14.5 µM (inactive)
same,GI50,SK-MEL-5,15.2 µM (inactive)
same,GI50,SK-OV-3,63.1 µM (inactive)
same,GI50,SN12C,17.9 µM (inactive)
same,GI50,SNB-19,17.4 µM (inactive)
same,GI50,SNB-75,29.4 µM (inactive)
same,GI50,SR,7.29 µM (inactive)
same,GI50,SW-620,24.7 µM (inactive)
same,GI50,T47D,20.9 µM (inactive)
same,GI50,UACC-62,18.1 µM (inactive)
same,GI50,UO-31,25.1 µM (inactive)

# — ChEMBL document CHEMBL1201862, “PubChem BioAssay data set” (2004)
